Experimental data from ChEMBL document CHEMBL5329155, “Synthesis and pharmacological evaluation of 1,3-diaryl substituted pyrazole based (thio)urea derivatives as potent antimicrobial agents against multi-drug resistant Staphylococcus aureus and Mycobacterium tuberculosis” (RSC Med Chem, 2023).
Converted amounts (≈) assume the structure as drawn.

Assays:
Type in all cases: functional
[1] = system: Staphylococcus aureus; experiment: Antibacterial activity against Staphylococcus aureus ATCC 29213 assessed as inhibition of bacterial growth measured for 18 to 24 hrs by broth dilution method; conditions: time 18-24 hrs
[2] = system: Mycobacterium tuberculosis; experiment: Antimycobacterial activity against Mycobacterium tuberculosis H37Rv ATCC 27294 assessed as inhibition of bacterial growth incubated for 18 to 24 hrs by broth dilution method
[3] = system: Mycobacterium tuberculosis; experiment: Antimycobacterial activity against Mycobacterium tuberculosis H37Rv assessed as reduction in bacterial growth
[4] = system: Mycobacterium tuberculosis; experiment: Antimycobacterial activity against isoniazid-resisitant Mycobacterium tuberculosis ATCC 35822 assessed as inhibition of bacterial growth incubated for 18 to 24 hrs by broth dilution method; conditions: time 18-24 hrs
[5] = system: Mycobacterium tuberculosis; experiment: Antimycobacterial activity against ethambutol-resisitant Mycobacterium tuberculosis ATCC 35837 assessed as inhibition of bacterial growth incubated for 18 to 24 hrs by broth dilution method; conditions: time 18-24 hrs
[6] = system: Mycobacterium tuberculosis; experiment: Antimycobacterial activity against streptomycin-resisitant Mycobacterium tuberculosis ATCC 35820 assessed as inhibition of bacterial growth incubated for 18 to 24 hrs by broth dilution method; conditions: time 18-24 hrs
[7] = system: Mycobacterium tuberculosis; experiment: Antimycobacterial activity against rifampicin-resisitant Mycobacterium tuberculosis ATCC 35838 assessed as inhibition of bacterial growth incubated for 18 to 24 hrs by broth dilution method; conditions: time 18-24 hrs
[8] = system: Staphylococcus aureus; experiment: Antibacterial activity against methicillin/ceftriaxone/meropenem/vancomycin/teicoplanin resistant Staphylococcus aureus VRS 4 assessed as reduction in bacterial growth incubated for 18 to 24 hrs by broth dilution method; conditions: time 18-24 hrs
[9] = system: Staphylococcus aureus; experiment: Antibacterial activity against methicillin/ceftriaxone/meropenem/vancomycin/teicoplanin resistant Staphylococcus aureus VRS 12 assessed as reduction in bacterial growth incubated for 18 to 24 hrs by broth dilution method; conditions: time 18-24 hrs
[10] = system: Staphylococcus aureus; experiment: Antibacterial activity against methicillin/ceftriaxone/meropenem/gentamycin/vancomycin/teicoplanin resistant Staphylococcus aureus VRS 1 assessed as reduction in bacterial growth incubated for 18 to 24 hrs by broth dilution method; conditions: time 18-24 hrs

| SMILES | MIC [1] [µg/mL] | MIC [2] [µg/mL] | also measured |
| --- | --- | --- | --- |
| COc1ccc(-c2ccn(-c3ccc(NC(=S)Nc4ccc(C)cc4)cc3)n2)cc1OC | > 64 | 64 (≈ 144 µM) | – |
| COc1ccc(-c2ccn(-c3ccc(NC(=S)NC4CCCCC4)cc3)n2)cc1OC | > 64 | 16 (≈ 36.6 µM) | – |
| COc1ccc(-c2ccn(-c3ccc(NC(=O)Nc4ccc(Cl)c(C(F)(F)F)c4)cc3)n2)cc1OC | 2 (≈ 3.87 µM) | 4 (≈ 7.74 µM) | – |
| COc1ccc(-c2nn(-c3ccc(Cl)cc3)cc2Cn2cncn2)cc1 | – | – | MIC [3]: 4.4 µg/mL (≈ 12 µM) |
| COc1ccc(-c2ccn(-c3ccc(NC(=O)Nc4ccc(Cl)cc4Cl)cc3)n2)cc1OC | > 64 | 16 (≈ 33.1 µM) | – |
| O=C(NCc1ccccc1)Nc1ccc(-n2ccc(-c3ccc(Cl)cc3Cl)n2)cc1 | > 64 | 64 (≈ 146 µM) | – |
| COc1ccc(-c2ccn(-c3ccc(NC(=S)Nc4cccc(Cl)c4)cc3)n2)cc1OC | > 64 | 16 (≈ 34.4 µM) | – |
| CCCCCCCNC(=S)Nc1ccc(-n2ccc(-c3ccc(OC)c(OC)c3)n2)cc1 | > 64 | 4 (≈ 8.84 µM) | – |
| Cc1ccc(-c2ccn(-c3ccc(NC(=O)NCc4ccccc4)cc3)n2)cc1 | > 64 | > 64 | – |
| COc1ccc(-c2ccn(-c3ccc(NC(=O)Nc4cccc(Cl)c4Cl)cc3)n2)cc1OC | > 64 | 16 (≈ 33.1 µM) | – |
| COc1ccc(-c2ccn(-c3ccc(NC(=S)Nc4ccccc4)cc3)n2)cc1OC | > 64 | 8 (≈ 18.6 µM) | – |
| COc1ccc(NC(=S)Nc2ccc(-n3ccc(-c4ccc(OC)c(OC)c4)n3)cc2)cc1 | > 64 | 8 (≈ 17.4 µM) | – |
| COc1ccc(-c2ccn(-c3ccc(NC(=S)Nc4ccc([N+](=O)[O-])cc4)cc3)n2)cc1OC | > 64 | 16 (≈ 33.6 µM) | – |
| CN[C@@H]1[C@H](O[C@H]2[C@H](O[C@H]3[C@H](O)[C@@H](O)[C@H](N=C(N)N)[C@@H](O)[C@@H]3N=C(N)N)O[C@@H](C)[C@]2(O)C=O)O[C@@H](CO)[C@H](O)[C@H]1O [STREPTOMYCIN] | – | 1 (≈ 1.72 µM) | MIC [4]: 1 µg/mL (≈ 1.72 µM); MIC [5]: 1 µg/mL (≈ 1.72 µM); MIC [6]: > 64 µg/mL; MIC [7]: 1 µg/mL (≈ 1.72 µM) |
| O=C(Nc1ccc(-n2ccc(-c3ccc4ccccc4c3)n2)cc1)Nc1ccc(Cl)c(Cl)c1 | > 64 | 64 (≈ 135 µM) | – |
| COc1ccc(-c2ccn(-c3ccc(NC(=S)Nc4ccc(Cl)cc4)cc3)n2)cc1OC | > 64 | 8 (≈ 17.2 µM) | – |
| COc1ccc(-c2ccn(-c3ccc(NC(=S)Nc4ccc(F)c(Cl)c4)cc3)n2)cc1OC | > 64 | 16 (≈ 33.1 µM) | – |
| COc1ccc(-c2ccn(-c3ccc(NC(=O)Nc4cccc(C(F)(F)F)c4)cc3)n2)cc1OC | > 64 | 8 (≈ 16.6 µM) | – |
| COc1cccc(NC(=S)Nc2ccc(-n3ccc(-c4ccc(OC)c(OC)c4)n3)cc2)c1 | > 64 | 16 (≈ 34.7 µM) | – |
| COc1ccc(-c2ccn(-c3ccc(NC(=O)Nc4c(C)cccc4C)cc3)n2)cc1OC | > 64 | > 64 | – |
| COc1ccc(-c2ccn(-c3ccc(NC(=O)Nc4ccc(Cl)c(Cl)c4)cc3)n2)cc1 | > 64 | 32 (≈ 70.6 µM) | – |
| O=C(Nc1ccc(-n2ccc(-c3ccccc3)n2)cc1)Nc1ccc(F)cc1F | > 64 | > 64 | – |

| SMILES | MIC [1] [µg/mL] | MIC [2] [µg/mL] | also measured |
| --- | --- | --- | --- |
| COc1ccc(NC(=S)Nc2ccc(-n3ccc(-c4ccc(OC)c(OC)c4)n3)cc2)c(OC)c1 | > 64 | 32 (≈ 65.2 µM) | – |
| O=C(Nc1ccc(-n2ccc(-c3ccc4ccccc4c3)n2)cc1)Nc1ccc(F)cc1F | > 64 | > 64 | – |
| NNC(=O)c1ccncc1 [ISONIAZID] | – | 0.03 (≈ 0.219 µM) | MIC [4]: > 64 µg/mL; MIC [5]: 0.03 µg/mL (≈ 0.219 µM); MIC [6]: 0.03 µg/mL (≈ 0.219 µM); MIC [7]: 0.03 µg/mL (≈ 0.219 µM) |
| COc1ccc(-c2ccn(-c3ccc(NC(=O)Nc4cccc(F)c4)cc3)n2)cc1OC | > 64 | 32 (≈ 74 µM) | – |
| CN[C@H](CC(C)C)C(=O)N[C@H]1C(=O)N[C@@H](CC(N)=O)C(=O)N[C@H]2C(=O)N[C@H]3C(=O)N[C@H](C(=O)N[C@H](C(=O)O)c4cc(O)cc(O)c4-c4cc3ccc4O)[C@H](O)c3ccc(c(Cl)c3)Oc3cc2cc(c3O[C@@H]2O[C@H](CO)[C@@H](O)[C@H](O)[C@H]2O[C@H]2C[C@](C)(N)[C@H](O)[C@H](C)O2)Oc2ccc(cc2Cl)[C@H]1O [VANCOMYCIN] | – | – | MIC [8]: > 64 µg/mL; MIC [9]: > 64 µg/mL; MIC [10]: > 64 µg/mL |
| O=C(NCc1ccccc1)Nc1ccc(-n2ccc(-c3ccc(Cl)cc3)n2)cc1 | > 64 | > 64 | – |
| O=C(NCc1ccccc1)Nc1ccc(-n2ccc(-c3cccnc3)n2)cc1 | > 64 | 8 (≈ 21.7 µM) | – |
| COc1ccc(-c2ccn(-c3ccc(NC(=S)Nc4cccc(Br)c4)cc3)n2)cc1OC | 64 (≈ 126 µM) | 16 (≈ 31.4 µM) | – |
| Cc1ccc(-c2ccn(-c3ccc(NC(=O)Nc4ccc(Cl)c(Cl)c4)cc3)n2)cc1 | > 64 | > 64 | – |
| COc1ccc(-c2ccn(-c3ccc(NC(=O)Nc4ccccc4C)cc3)n2)cc1OC | > 64 | 16 (≈ 37.3 µM) | – |
| COc1cc(-c2ccn(-c3ccc(NC(=O)Nc4ccc(Cl)c(Cl)c4)cc3)n2)cc(OC)c1OC | > 64 | > 64 | – |
| COc1ccc(-c2ccn(-c3ccc(NC(=O)NCc4ccccc4)cc3)n2)cc1 | > 64 | > 64 | – |
| O=C(Nc1ccc(-n2ccc(-c3ccc(Cl)cc3)n2)cc1)Nc1ccc(F)cc1F | > 64 | > 64 | – |
| O=C(Nc1ccc(-n2ccc(-c3cccnc3)n2)cc1)Nc1ccc(Cl)c(Cl)c1 | > 64 | 16 (≈ 37.7 µM) | – |
| COc1ccc(-c2ccn(-c3ccc(NC(=S)Nc4ccc(F)cc4)cc3)n2)cc1OC | > 64 | 2 (≈ 4.46 µM) | – |
| COc1ccc(-c2ccn(-c3ccc(NC(=S)Nc4ccc(F)cc4F)cc3)n2)cc1OC | > 64 | 16 (≈ 34.3 µM) | – |
| COc1ccc(-c2ccn(-c3ccc(NC(=O)Nc4ccc(C)c(Cl)c4)cc3)n2)cc1OC | > 64 | 4 (≈ 8.64 µM) | – |
| O=C(NCc1ccccc1)Nc1ccc(-n2ccc(-c3ccccc3)n2)cc1 | > 64 | > 64 | – |
| O=C(Nc1ccc(-n2ccc(-c3ccccc3)n2)cc1)Nc1ccc(Cl)c(Cl)c1 | > 64 | 64 (≈ 151 µM) | – |
| COc1ccc(-c2ccn(-c3ccc(NC(=S)Nc4ccc(C(F)(F)F)cc4)cc3)n2)cc1OC | 2 (≈ 4.01 µM) | 2 (≈ 4.01 µM) | – |
| COc1ccc(-c2ccn(-c3ccc(NC(=O)Nc4ccc(F)cc4F)cc3)n2)cc1 | > 64 | 8 (≈ 19 µM) | – |
| CC[C@@H](CO)NCCN[C@@H](CC)CO [ETHAMBUTOL] | – | 2 (≈ 9.79 µM) | MIC [4]: 4 µg/mL (≈ 19.6 µM); MIC [5]: 32 µg/mL (≈ 157 µM); MIC [6]: 2 µg/mL (≈ 9.79 µM); MIC [7]: 2 µg/mL (≈ 9.79 µM) |

| SMILES | MIC [1] [µg/mL] | MIC [2] [µg/mL] | also measured |
| --- | --- | --- | --- |
| COc1ccc(-c2ccn(-c3ccc(NC(=S)Nc4cc(C)cc(C)c4)cc3)n2)cc1OC | > 64 | 8 (≈ 17.4 µM) | – |
| O=C(NCc1ccccc1)Nc1ccc(-n2ccc(-c3ccc4ccccc4c3)n2)cc1 | > 64 | 64 (≈ 153 µM) | – |
| COc1ccccc1NC(=O)Nc1ccc(-n2ccc(-c3ccc(OC)c(OC)c3)n2)cc1 | > 64 | 32 (≈ 72 µM) | – |
| O=C(Nc1ccc(-n2ccc(-c3ccc(Cl)cc3)n2)cc1)Nc1ccc(Cl)c(Cl)c1 | > 64 | 8 (≈ 17.5 µM) | – |
| O=C(Nc1ccc(-n2ccc(-c3ccc(Cl)cc3Cl)n2)cc1)Nc1ccc(Cl)c(Cl)c1 | > 64 | > 64 | – |
| COc1ccc(-c2ccn(-c3ccc(NC(=O)Nc4ccccc4)cc3)n2)cc1OC | > 64 | 8 (≈ 19.3 µM) | – |
| COc1ccc(-c2cn(-c3ccc(NC(=O)NCc4ccccc4)cc3)nn2)cc1OC | > 64 | 16 (≈ 37.3 µM) | – |
| CO[C@H]1/C=C/O[C@@]2(C)Oc3c(C)c(O)c4c(O)c(c(/C=N/N5CCN(C)CC5)c(O)c4c3C2=O)NC(=O)/C(C)=C\C=C\[C@H](C)[C@H](O)[C@@H](C)[C@@H](O)[C@@H](C)[C@H](OC(C)=O)[C@@H]1C [RIFAMPIN] | – | 0.06 (≈ 0.0729 µM) | MIC [4]: 0.03 µg/mL (≈ 0.0365 µM); MIC [5]: 0.03 µg/mL (≈ 0.0365 µM); MIC [6]: 0.03 µg/mL (≈ 0.0365 µM); MIC [7]: 64 µg/mL (≈ 77.8 µM) |
| COc1ccc(-c2ccn(-c3ccc(NC(=S)Nc4ccc(C#N)cc4)cc3)n2)cc1OC | > 64 | 32 (≈ 70.2 µM) | – |
| Cc1ccc(-c2ccn(-c3ccc(NC(=O)Nc4ccc(F)cc4F)cc3)n2)cc1 | > 64 | > 64 | – |
| COc1ccc(-c2ccn(-c3ccc(NC(=O)Nc4cccc(Cl)c4)cc3)n2)cc1OC | 2 (≈ 4.46 µM) | 16 (≈ 35.6 µM) | – |
| COc1cc(-c2ccn(-c3ccc(NC(=O)Nc4ccc(F)cc4F)cc3)n2)cc(OC)c1OC | > 64 | 8 (≈ 16.7 µM) | – |
| O=C(Nc1ccc(-n2ccc(-c3cccnc3)n2)cc1)Nc1ccc(F)cc1F | > 64 | 8 (≈ 20.4 µM) | – |
| COc1ccc(-c2ccn(-c3ccc(NC(=S)Nc4cccc5ccccc45)cc3)n2)cc1OC | > 64 | 16 (≈ 33.3 µM) | – |
| COc1ccc(-c2ccn(-c3ccc(NC(=O)NS(=O)(=O)c4ccccc4)cc3)n2)cc1OC | > 64 | 16 (≈ 33.4 µM) | – |
| COc1ccc(-c2cn(-c3ccc(NC(=O)Nc4ccc(F)cc4F)cc3)nn2)cc1OC | > 64 | 8 (≈ 17.7 µM) | – |
| COc1ccc(-c2ccn(-c3ccc(NC(=S)Nc4cc(C(F)(F)F)cc(C(F)(F)F)c4)cc3)n2)cc1OC | 1 (≈ 1.77 µM) | 16 (≈ 28.2 µM) | – |
| COc1ccc(-c2ccn(-c3ccc(NC(=S)NCc4ccccc4)cc3)n2)cc1OC | > 64 | 8 (≈ 18 µM) | – |
| O=C(Nc1ccc(-n2ccc(-c3ccc(Cl)cc3Cl)n2)cc1)Nc1ccc(F)cc1F | > 64 | > 64 | – |
| COc1ccc(-c2cn(-c3ccc(NC(=O)Nc4ccc(Cl)c(Cl)c4)cc3)nn2)cc1OC | 4 (≈ 8.26 µM) | > 64 | – |
| COc1ccc(-c2ccn(-c3ccc(NC(=O)Nc4cc(Cl)ccc4Cl)cc3)n2)cc1OC | > 64 | > 64 | – |
